{
  "source": "patent US9303076B2",
  "about": "“Cell-penetrating peptides and uses thereof” (Hoffmann-La Roche Inc., priority 2010, dated 2016)",
  "key": {"human Aha1 mRNA [1]": {"test_system": "human Aha1 mRNA", "experiment": "siRNA transfection screening (siAha1 vs siGL3 control, bDNA assay of Aha1/GAPDH mRNA)", "assay_type": "cell-based", "protocol": "For the quantification of cellular mRNA levels bDNA (branched DNA) assays were performed which enable the detection of individual mRNA levels. To this end, a defined number of the cells to be analyzed was seeded into 96-well plates and allowed to attach over night. On the next day, the cells were transfected with siRNA.\nAfter further 24 hours, the mRNA species were quantified using the QuantiGene Plex 2.0 assay kit according to the manufacturers instructions (Affymetrix Inc., Santa Clara, Calif., USA). In brief, cell lysates were transferred to a capture plate in the presence of a gene-specific probe set and incubated at 53° C. over night. After washing, the wells were sequentially incubated at 53° C. with an amplifier agent and an alkaline phosphatase (AP)-linked label probe with a washing step in between. Subsequently, the luminescent AP substrate dioxitane was added and incubated for 30 min at 53° C. Luminescence was assayed using an InfiniteF200 luminescence reader (Tecan Austria GmbH, Groding, Austria).\nIn order to analyze the potential CPPs for their ability to transfect siRNA into mammalian cells an increasing peptide concentration (from 1 μM to 20 μM) was employed along with a constant siRNA concentration (100 nM). This range of peptide concentrations was used as it had been shown that positively charged peptides such as TAT are internalized into cells in ranges up to 10 μM and remain in intracellular membrane compartments without significant egress into the cytosol (Duchardt, F. et al. (2007) Traffic 8, 848-866). […] A concentration of 10 nM siRNA is in the saturation range as determined in control experiments using the DharmaFECT transfection reagent (Dharmacon, Inc., Lafayette, Colo., USA; data not shown).\nThe siRNA oligonucleotides employed were directed against human Aha1 mRNA (Panaretou, B. et al. (2002) Mol. Cell 10, 1307-1318) or against luciferase mRNA as a control.\nComplexes of siRNA and the respective peptides were formed in OptiMEM medium and incubated for 15 minutes at room temperature. The cells were incubated in the presence of the complexes for three hours in OptiMEM. After washing, the cells were incubated for further 21 or 45 hours in normal growth medium. Thereafter, the levels of Aha1 mRNA and a reference mRNA (i.e. GAPDH mRNA) were measured by means of a bDNA assay. These assays were performed with cells that were transfected with siAHA1 and with a control siRNA (siGL3, luciferase), respectively.\nAs a measure for specific RNAi, the reduction of Aha1 mRNA levels relative to GAPDH mRNA levels was compared in siAHA1-transfected cells and siGL3-transfected cells. Specific siRNA mediated transfection causes a reduction in Aha1/GAPDH mRNA values in siAhA1-compared to siGL3-transfected cells. FIG. 3 depicts the screening readout of these assays: the Aha1/GAPDH mRNA values of non-transfected control cells were set to 100% (for each assay), and the Aha1/GAPDH mRNA values of siAha1- or siGL3-transfected cells were expressed relative to that. For this normalized data set, the differences between the respective Aha1/GAPDH mRNA levels of siAha1- and siGL3-transfected cells were determined. Specific peptides caused a significant reduction in siAha1 transfection without reducing siGL3 transfections, which results in positive difference values. The more pronounced these values are, the more specific RNAi is observed (cf. FIG. 3)."}, "human Aha1 mRNA [2]": {"test_system": "human Aha1 mRNA", "experiment": "siRNA transfection in the presence of serum", "assay_type": "cell-based", "details": "serum-containing medium", "protocol": "NRTN was analyzed for its ability to transfect siRNA duplexes in the absence (A) and presence (B) of serum in the transfection medium. The experimental approach was the same as in FIG. 3. The assay was either carried out in normal RPMI 1640 growth medium containing 10% FCS (B) or for three hours in OptiMEM reduced serum medium followed by change of the medium back to normal growth medium (A). The mRNA values obtained at 1 μM were set to 100% to show dose dependent effects. Aha1 siRNA is shown as black filled squares; luciferase siRNA is shown as non-filled circles.\nMost of the assays described herein were performed under the “standard in vitro conditions” for the detection of peptide-mediated transfection that are well established in the art (see, e.g., Simeoni, F. et al. (2003) Nucleic Acids Res. 31, 2717-2724; Richard, J. P. et al. (2005) J. Biol. Chem. 280, 15300-15306; Abes, R. et al. (2007) Biochem. Soc. Trans. 35, 775-779; Kumar, P. et al. (2007) Nature 448, 39-43; Mueller, J. et al. (2008) Bioconjug. Chem. 19, 2363-2374; Sugita, T. et al. (2008) Br. J. Pharmacol. 153, 1143-1152). Accordingly, the incubation for the initial “transfection step” is performed under basically serum free conditions. The addition of serum at this step interferes with the transfection ability of the CPPs (cf. FIG. 13; see also Ignatovich, I. A. et al. (2003), supra). […]"}},
  "note": "Entries after “also recorded” stand apart in the source; their conditions may differ.",
  "data": [
    {"sequence": "GAAEAAARVYDLGLRRLRQRRRLRRERVRA (NRTN peptide sequence; listed as Homo sapiens) [peptide derived from human neurturin]", "values": [
      {"measurement": "siRNA transfection activity (specific Aha1 mRNA reduction relative to GAPDH mRNA)", "setting": "human Aha1 mRNA [1]; MCF7 cells, 100 nM siRNA, peptide 1 μM to 20 μM", "value": "even more effective reduction of Aha1 mRNA levels"},
      {"measurement": "transfection efficacy compared with TAT / control peptides", "setting": "human Aha1 mRNA [1]; NRTN: at lower non-toxic concentrations", "value": "higher than that of all (positive) control peptides analyzed; also recorded: efficacy even higher than TAT"},
      {"measurement": "transfection in the presence of medium with reduced serum concentration", "setting": "human Aha1 mRNA [2]", "value": "can still mediate transfection"}
    ]}
  ]
}
